Test results: US11697679B2, “Modified collagen protein and application of same” (UNIVERSITY OF TSUKUBA, priority 2017, dated 2023)

System: GFP-inserted Type V collagen α1 expression MC3T3-E1
Test: Fibrogenesis inhibitory experiment in stress culture in multi-well plates
Assay type: cell-based, mouse
Conditions: 1.0 mg/ml added when switched to stress culture; observed after 28 days; compared to wells without Pirfenidone; FIG. 18
Procedure: Normal cultivation was performed using the following materials. Cultivations using MC3T3-E1 and Balb3T3, respectively, were performed in αMEM medium containing 10% serum, and in MEM medium containing 10% serum, at 37° C. and 5% CO2. • Serum: Fetal bovine serum (Gibco) • Medium: Minimum Essential Medium Alpha (Gibco) • Medium: Minimum Essential Medium (Gibco) • Dish for culturing cells: Cell culture dish 60×15 mm (Falcon)
The following flasks were filled with medium for shaking culture. • Cell-culture flasks: 25 mL (Falcon) of Cell culture flask (12.5 cm^2 slant neck/plug seal)
The shaking culture was performed using a mini-shaker SHM-2002 (LMS) at a shaking angle of 7° and a rotational speed of 20 rpm using a sunflower shaking method.
OLYMPUS LX73 was used for fluorescent microscopy. The following filter sets were used for fluorescence imaging. • Green Fluorescence: U-EGFP (OLYMPUS), Ex: 470/20, Em: 518/45 • Red fluorescence: BrightLine®SpGold-B-000-ZERO (Semrock), Ex: 534/20, Em: 572/28 • Near Infrared Fluorescence: BrightLine®Cy5.5-B-000 (Semrock), Ex: 655/40, Em: 716/40
The GFP-inserted Type V collagen α1 expression MC3T3-E1 was cultured in multi-well plates and when switched to stress cultures capable of inducing collagen secretion, 1.0 mg/ml of Pirfenidone was added and compared to wells without such addition of Pirfenidone. […]

Cc1ccc(=O)n(-c2ccccc2)c1 [Pirfenidone]
extracellular collagen fiber formation (green fluorescent fiber structures): inhibited
